Experimental data reported in patent US20230150981A1, “N-HETEROARYLALKYL-2-(HETEROCYCLYL AND HETEROCYCLYLMETHYL) ACETAMIDE DERIVATIVES AS SSTR4 AGONISTS” (Takeda Pharmaceutical Compnay Limited, priority 2020, published 2023).

What was measured:
[1] = biological target: T1, SSTR4 (Homo sapiens, UniProt P31391); experiment: Inhibition of forskolin stimulated cAMP in CHO-K1 cells overexpressing SSTR4; type: cell-based; details: read-out: SSTR4 Activity pEC50 (converted)
T1 construct: host or cells: CHO-K1
T1 sequence (P31391 whole entry): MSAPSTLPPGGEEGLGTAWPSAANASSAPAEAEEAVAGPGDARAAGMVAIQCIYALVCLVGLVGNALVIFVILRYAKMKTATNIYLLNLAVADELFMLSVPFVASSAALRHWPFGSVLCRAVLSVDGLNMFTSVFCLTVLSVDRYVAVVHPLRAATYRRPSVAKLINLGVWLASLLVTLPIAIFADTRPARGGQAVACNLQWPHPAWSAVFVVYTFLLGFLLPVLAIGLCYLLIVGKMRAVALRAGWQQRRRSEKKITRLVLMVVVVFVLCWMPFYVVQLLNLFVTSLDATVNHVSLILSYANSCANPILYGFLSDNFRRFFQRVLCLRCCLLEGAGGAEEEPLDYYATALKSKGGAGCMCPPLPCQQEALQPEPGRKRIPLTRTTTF
Procedure, shortened: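 CHO-K1 cells overexpressing SSTR4 treated 30 min at room temperature with compound in Krebs Ringer buffer containing 0.5% BSA, 300 μM IBMX and 350 nM forskolin. Intracellular cAMP measured by HTRF LANCE Ultra (665/615 nm); pEC50 values reported.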

[2] = biological target: T2, SSTR1 (Homo sapiens, UniProt P30872); experiment: SSTR1 I-125 somatostatin competition binding assay for selectivity versus SSTR1 (CHO-K1 membranes); details: competition with I-125 somatostatin, membranes from CHO-K1 overexpressing SSTR1; read-out: SSTR1 Binding pIC50 (converted)
T2 construct: purchased Perkin Elmer ES-520-M400UA; host or cells: CHO-K1 membranes
T2 sequence (P30872 whole entry): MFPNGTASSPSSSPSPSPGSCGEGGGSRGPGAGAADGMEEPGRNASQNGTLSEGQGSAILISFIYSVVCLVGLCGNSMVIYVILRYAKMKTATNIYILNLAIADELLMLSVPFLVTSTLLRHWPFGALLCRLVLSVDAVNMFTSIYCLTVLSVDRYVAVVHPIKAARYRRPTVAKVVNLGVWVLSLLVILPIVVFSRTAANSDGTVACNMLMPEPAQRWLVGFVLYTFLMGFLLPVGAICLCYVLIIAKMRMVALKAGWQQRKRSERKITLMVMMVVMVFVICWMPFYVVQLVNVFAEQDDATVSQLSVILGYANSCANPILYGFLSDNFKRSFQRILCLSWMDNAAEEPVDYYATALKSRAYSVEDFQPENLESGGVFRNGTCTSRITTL
Procedure, shortened: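 Competition binding used 10 μg CHO-K1 SSTR1 membranes and I-125 somatostatin, 0.4 nM in the compound mix before membranes were added. Buffer was 25 mM HEPES pH 7.4, 10 mM MgCl2, 1 mM CaCl2, 0.5% BSA. After 60 min at room temperature, bound tracer was filtered onto PEI-soaked filters and counted by scintillation; values are pIC50.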

[3] = biological target: T1, SSTR4; experiment: SSTR4 I-125 somatostatin competition binding assay (CHO-K1 membranes); details: competition with I-125 somatostatin, membranes from CHO-K1 overexpressing SSTR4; read-out: SSTR4 Binding pIC50 (converted)
Procedure, shortened: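 CHO-K1 membranes overexpressing SSTR4 (1 μg/well) were incubated 60 min at room temperature with compound and I-125 somatostatin (0.2 nM in the compound mix) in 25 mM HEPES pH 7.4, 10 mM MgCl2, 1 mM CaCl2, 0.5% BSA. Bound radioligand was collected on PEI-soaked filters and scintillation-counted, with results reported as pIC50.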

SMILES | EC50 [1] | IC50 [2] | IC50 [3]
CC(C)[C@@H](CN1CCC1)C(=O)N[C@@H](c1ccccc1)C(F)F [Example 178, (S)-2-(azetidin-1-ylmethyl)-N-((S)-2,2-difluoro-1-phenylethyl)-3-methylbutanamide] | 39.8 nM | 6310 nM | 39.8 nM
Cc1cc2ccccc2c(C(C)(C)NC(=O)C[C@H]2CCCN2C)n1 [Example 70, (R)-N-(2-(3-methylisoquinolin-1-yl)propan-2-yl)-2-(1-methylpyrrolidin-2-yl)acetamide] | 5.01 nM | 1260 nM | 79.4 nM
CN1CCC[C@H]1CC(=O)NC(C)(C)c1ccc(Cl)cc1 [Example 35, (S)-N-(2-(4-chlorophenyl)propan-2-yl)-2-(1-methylpyrrolidin-2-yl)acetamide] | 63.1 nM | 12600 nM | 316 nM
CCN1CCC[C@@H]1CC(=O)NC(C)(C)COc1ncccc1C(F)(F)F [Example 57, (R)-2-(1-ethylpyrrolidin-2-yl)-N-(2-methyl-1-((3-(trifluoromethyl)pyridin-2-yl)oxy)propan-2-yl)acetamide] | 3.98 nM | 12600 nM | 100 nM
CN1CCCC1CC(=O)NC(C)(C)COc1ncccc1C(F)(F)F (stereo not drawn) [Example 28, N-(2-methyl-1-((3-(trifluoromethyl)pyridin-2-yl)oxy)propan-2-yl)-2-(1-methylpyrrolidin-2-yl)acetamide] | 20 nM | 15800 nM | 251 nM
CC[C@@H](CN1CCC1)C(=O)N[C@H](c1ccccc1)C(F)F [Example 180, (S)-2-(azetidin-1-ylmethyl)-N-((R)-2,2-difluoro-1-phenylethyl)butanamide] | 0.126 nM | 631 nM | 3.16 nM
CN1CCCC1CC(=O)NC(C)(C)c1nccc2ccccc12 (stereo not drawn) [Example 203, N-(2-(isoquinolin-1-yl)propan-2-yl)-2-(1-methylpyrrolidin-2-yl)acetamide] | 3.98 nM | 3980 nM | 158 nM
CN1CCC[C@H]1CC(=O)NC(C)(C)c1cccc(Cl)c1Cl [Example 80, (S)-N-(2-(2,3-dichlorophenyl)propan-2-yl)-2-(1-methylpyrrolidin-2-yl)acetamide] | 25.1 nM | 20000 nM | 316 nM
Cc1ccccc1C(NC(=O)CCN1CCC1)C(F)(F)F (single isomer, unassigned) [Example 210] | 10 nM | 3980 nM | 31.6 nM
CN1CCC[C@@H]1CC(=O)NC(C)(C)c1nccc2occc12 [Example 39, (R)-N-(2-(furo[3,2-c]pyridin-4-yl)propan-2-yl)-2-(1-methylpyrrolidin-2-yl)acetamide] | 50.1 nM | > 50100 nM | 794 nM
Cc1cccc2c(C(C)(C)NC(=O)CC3CCCCN3C)noc12 (stereo not drawn) [Example 41, N-(2-(7-methylbenzo[d]isoxazol-3-yl)propan-2-yl)-2-(1-methylpiperidin-2-yl)acetamide] | 3.16 nM | 6310 nM | 63.1 nM
O=C(CCN1CCC1)NC(c1cccc(F)c1)C(F)(F)F (single isomer, unassigned) [Example 208] | 3.16 nM | 15800 nM | 39.8 nM
CN1CCC[C@@H]1CC(=O)NC(C)(C)c1cc(Cl)ccc1Cl [Example 38, (R)-N-(2-(2,5-dichlorophenyl)propan-2-yl)-2-(1-methylpyrrolidin-2-yl)acetamide] | 63.1 nM | 25100 nM | 316 nM
Cc1ccc(C(CF)NC(=O)CCN2CCC2)cc1 (stereo not drawn) [Example 173, 3-(azetidin-1-yl)-N-(2-fluoro-1-(p-tolyl)ethyl)propanamide] | 20 nM | > 50100 nM | 200 nM
Cc1cccnc1OCC1(NC(=O)C[C@@H]2CCCN2C)CCC1 [Example 55, (S)-N-(1-(((3-methylpyridin-2-yl)oxy)methyl)cyclobutyl)-2-(1-methylpyrrolidin-2-yl)acetamide] | 100 nM | 39800 nM | 1000 nM
CN1CCC[C@@H]1CC(=O)NC(C)(C)c1nccc2ccccc12 [Example 16, (R)-N-(2-(isoquinolin-1-yl)propan-2-yl)-2-(1-methylpyrrolidin-2-yl)acetamide] | 12.6 nM | 3160 nM | 100 nM
CN1CCCCC1CC(=O)NC(C)(C)c1nn(C)c2ccccc12 (stereo not drawn) [Example 2, N-(2-(1-methyl-1H-indazol-3-yl)propan-2-yl)-2-(1-methylpiperidin-2-yl)acetamide] | 6.31 nM | 3160 nM | 63.1 nM

SMILES | EC50 [1] | IC50 [2] | IC50 [3]
CN1CCC[C@H]1CC(=O)NC(C)(C)c1ccccc1F [Example 160, (S)-N-(2-(2-fluorophenyl)propan-2-yl)-2-(1-methylpyrrolidin-2-yl)acetamide] | 158 nM | > 50100 nM | 1000 nM
COc1c(C)cccc1C(C)(C)NC(=O)[C@H](C)CN1CCC1 (single isomer, unassigned) [Example 146] | 2.51 nM | 2510 nM | 20 nM
CN1CCCCC1CC(=O)NC(C)(C)c1cccc(Cl)c1 (stereo not drawn) [Example 11, N-(2-(3-chlorophenyl)propan-2-yl)-2-(1-methylpiperidin-2-yl)acetamide] | 39.8 nM | 25100 nM | 200 nM
O=C(CCN1CCC1)N[C@H](c1cccc(Cl)c1)C(F)F [Example 202, (R)-3-(azetidin-1-yl)-N-(1-(3-chlorophenyl)-2,2-difluoroethyl)propanamide] | 0.794 nM | 6310 nM | 20 nM
Cc1cccc2c(C(C)(C)NC(=O)CC3NCCC3(F)F)nccc12 (stereo not drawn) [Example 101, 2-(3,3-difluoropyrrolidin-2-yl)-N-(2-(5-methylisoquinolin-1-yl)propan-2-yl)acetamide] | 100 nM | > 50100 nM | 631 nM
CN1CCC[C@@H]1CC(=O)NC(C)(C)c1cccc(Cl)c1Cl [Example 96, (R)-N-(2-(2,3-dichlorophenyl)propan-2-yl)-2-(1-methylpyrrolidin-2-yl)acetamide] | 15.8 nM | 15800 nM | 200 nM
Cc1cc2ccccc2c(C(C)(C)NC(=O)C[C@@H]2CCCN2C)n1 [Example 22, (S)-N-(2-(3-methylisoquinolin-1-yl)propan-2-yl)-2-(1-methylpyrrolidin-2-yl)acetamide] | 7.94 nM | 2510 nM | 63.1 nM
C[C@@H](C(=O)NC(C)(C)c1nccc2ccccc12)[C@H]1CCCN1C (racemic) [Example 111, (R)-N-(2-(isoquinolin-1-yl)propan-2-yl)-2-((R)-1-methylpyrrolidin-2-yl)propanamide and (S)-N-(2-(isoquinolin-1-yl)propan-2-yl)-2-((S)-1-methylpyrrolidin-2-yl)propanamide] | 3.16 nM | 3980 nM | 25.1 nM
CN1CCC[C@H]1CC(=O)NC(C)(C)c1nccc2occc12 [Example 34, (S)-N-(2-(furo[3,2-c]pyridin-4-yl)propan-2-yl)-2-(1-methylpyrrolidin-2-yl)acetamide] | 100 nM | > 50100 nM | 316 nM
Cc1c(Cl)cccc1C(C)(C)NC(=O)C[C@H]1CCCN1C [Example 119, (R)-N-(2-(3-chloro-2-methylphenyl)propan-2-yl)-2-(1-methylpyrrolidin-2-yl)acetamide] | 15.8 nM | 20000 nM | 251 nM
C[C@H](CN1CCCC1)C(=O)NC(C)(C)c1ccccc1Cl (single isomer, unassigned) [Example 136] | 6.31 nM | 10000 nM | 126 nM
Cc1cccc2c(C(C)(C)NC(=O)C[C@@H]3CCCCN3C)noc12 (single isomer, unassigned) [Example 44] | 6.31 nM | 12600 nM | 63.1 nM
CN1CCC[C@H]1CC(=O)NC(C)(C)c1nccc2ccccc12 [Example 24, (S)-N-(2-(isoquinolin-1-yl)propan-2-yl)-2-(1-methylpyrrolidin-2-yl)acetamide] | 12.6 nM | 6310 nM | 200 nM
CC(C)(NC(=O)CCN1CCC1)c1ccc(Cl)cc1 [Example 165, 3-(azetidin-1-yl)-N-(2-(4-chlorophenyl)propan-2-yl)propanamide] | 10 nM | 25100 nM | 79.4 nM
Cc1cccc2c(C(C)(C)NC(=O)C[C@H]3CCCCN3C)noc12 (single isomer, unassigned) [Example 43] | 2 nM | 3980 nM | 20 nM
O=C(CCN1CCC1)NC(c1ccc(F)cc1)C(F)(F)F (single isomer, unassigned) [Example 190] | 2 nM | 3160 nM | 20 nM
CN1CCCCC1CC(=O)NC(C)(C)c1nccc2ccccc12 (stereo not drawn) [Example 6, N-(2-(isoquinolin-1-yl)propan-2-yl)-2-(1-methylpiperidin-2-yl)acetamide] | 1.58 nM | 2510 nM | 25.1 nM
